In patent publication US20250312303A1, “ANTICANCER AGENT” (AGC Inc., priority 2022, published 2025):
“And” between values parts separate entries of the source, which are not always exact repeats. Identical values can stand only once.

Assays:
[1] = test system: PANC-1 cells; assay: SRB assay, relative cell proliferation rate of PANC-1 cells; assay type: cell-based
Description: (§1) HeLa cells and PANC-1 cells were used as the cancer cells. Both these cells were obtained from ATCC. Further, NHDF cells obtained from Lonza Group Ltd. were used as control non-cancer cells. The culture mediums used were Dulbecco's Modified Eagle Medium (D-MEM, manufactured by FUJIFILM Wako Pure Chemical Corporation) to which 10% FBS had been added (hereinafter also referred to as the “normal medium”), a medium prepared by removing leucine from D-MEM and adding 10% FBS (hereinafter also referred to as the “Leu-removed medium”), and a medium prepared by removing valine from D-MEM and adding 10% FBS (hereinafter also referred to as the “Val-removed medium”).
(§2) The culture cells were inoculated into a 96-well culture plate at a concentration of 3×10^3 cells/well, and following adhesion, were cultured for 24, 48 or 72 hours in the normal medium, the Leu-removed medium or Val-removed medium, or a medium prepared by adding the fluorine-containing amino acid to the Leu-removed medium or Val-removed medium in an amount sufficient to achieve a final concentration of 0.8 mM. Following culturing, the cell proliferation rate was measured by SRB assay. As a control, the cell proliferation rate was measured in a similar manner for cells having a culture time of 0 hours.
(§3) The SRB assays were conducted in the following manner. Following cell culturing, the medium was removed, and 10% (wt/vol) of trichloroacetic acid was added to fix the cells. Subsequently, the fixed cells were washed three times with tap water, and then stained by adding a solution containing 0.4% (wt/vol) of sulforhodamine B dissolved in 1% acetic acid. Following subsequent washing three times with a 1% acetic acid solution, a 10 mM Tris solution was added, and the light absorbance at 540 nm was measured. The 540 nm absorbance value for each sample was used to indicate the cell quantity, and for each sample, the relative cell proliferation rate (%) at a culture time of X hours was determined using the formula below.
(§4) SRB assays were conducted in the same manner as Example 1 with the exceptions of using a medium prepared by removing glutamine from D-MEM and adding 10% FBS (hereinafter also referred to as the “Gln-removed medium”) as the culture medium instead of the Leu-removed medium, using monofluoroglutamine ((2S,4S)Gln(1F) or (2S,4R)Gln(1F)) as the fluorine-containing amino acid, and altering the amount of monofluoroglutamine added to the Gln-removed medium to an amount sufficient to achieve a final concentration of 4 mM.
(§5) SRB assays were conducted in the same manner as Example 1 with the exceptions of using the Gln-removed medium as the culture medium instead of the Leu-removed medium, using difluoroglutamine as the fluorine-containing amino acid, and altering the amount of difluoroglutamine added to the Gln-removed medium to an amount sufficient to achieve a final concentration of 4 mM.

[2] = test system: NHDF cells; assay: SRB assay, relative cell proliferation rate of NHDF cells (control non-cancer cells); assay type: cell-based
Description: as §1, §2, §3, §4

[3] = test system: HeLa cells; assay: SRB assay, relative cell proliferation rate of HeLa cells; assay type: cell-based
Description: as §1, §2, §3, §4, §5

[4] = test system: HeLa cells; assay: Tumor volume of subcutaneously transplanted HeLa cells in SCID/SCID mice; assay type: in vivo; settings: for Increase in the size of the tumor tissue compared with the control group: HeLa tumor-bearing SCID/SCID mice, 5 mg/kg intraperitoneally every day for two weeks, result in words
Procedure: First, 0.1 mL samples of an HeLa cell solution with a concentration of 1.0×10^7 cells/mL were transplanted beneath the skin of SCID/SCID (immunodeficient) mice. Starting 7 days after the HeLa cell transplantation, PBS (control group), leucine (5 mg/kg mouse bodyweight) or trifluoroleucine (5 mg/kg mouse bodyweight) was administered intraperitoneally every day for two weeks. The growth of the tumor tissue was observed over time from the time of HeLa transplantation, and the tumor volume (mm^3) was calculated. The tumor volume (mm^3) was calculated from the major diameter (mm) of the tumor tissue and the minor diameter (mm) of the tumor tissue using the formula shown below.
With the exceptions of using monofluoroisoleucine or 5-fluoro-5-methyl-norleucine (CAS RN: 1361228-49-0) instead of the trifluoroleucine, and starting the administration of the PBS, 5-fluoro-5-methyl-norleucine or monofluoroisoleucine 11 days after rather than 7 days after the HeLa cell transplantation, the same procedure as (1) above was used to measure the volume (mm^3) of the tumor formed by the subcutaneously transplanted HeLa cells over time.
(§6) First, 0.1 mL samples of an HeLa cell solution with a concentration of 1.0×10^7 cells/mL were transplanted beneath the skin of SCID/SCID (immunodeficient) mice. Starting 7 days after the HeLa cell transplantation, PBS (control group), glutamine (Gln) (5 mg/kg mouse bodyweight), (2S,4S)Gln(1F) (5 mg/kg mouse bodyweight) or (2S,4R)Gln(1F) (5 mg/kg mouse bodyweight) was administered intraperitoneally every day for two weeks. The growth of the tumor tissue was observed over time from the time of HeLa cell transplantation, and the tumor volume (mm^3) was calculated. The tumor volume (mm^3) was determined in the same manner as that described in Example 2.
as §6, with “mouse bodyweight), or di-F-Gln(F)” for “mouse bodyweight), (2S,4S)Gln(1F) (5 mg/kg mouse bodyweight) or (2S,4R)Gln(1F)”, “bodyweight), or di-F-Gln(F) (5 mg/kg” for “bodyweight) or (2S,4R)Gln(1F) (5 mg/kg”, “of HeLa transplantation, and” for “of HeLa cell transplantation, and”

[5] = Val-removed medium + 0.8 mM amino acid, culture time 24 h
[6] = Val-removed medium + 0.8 mM amino acid, culture time 48 h
[7] = Val-removed medium + 0.8 mM amino acid, culture time 72 h
[8] = Val-removed medium + 0.8 mM amino acid, culture time 72 h, listed as monofluorovaline
[9] = Val-removed medium + 0.8 mM amino acid, culture time 72 h, listed as hexafluorovaline
[10] = Gln-removed medium + 4 mM amino acid, culture time 24 h
[11] = Gln-removed medium + 4 mM amino acid, culture time 48 h
[12] = Gln-removed medium + 4 mM amino acid, culture time 72 h
[13] = 5 mg/kg intraperitoneally every day for two weeks starting day 7, 7 days since HeLa cell transplantation
[14] = 5 mg/kg intraperitoneally every day for two weeks starting day 7, 9 days since HeLa cell transplantation
[15] = 5 mg/kg intraperitoneally every day for two weeks starting day 7, 11 days since HeLa cell transplantation
[16] = 5 mg/kg intraperitoneally every day for two weeks starting day 7, 14 days since HeLa cell transplantation
[17] = 5 mg/kg intraperitoneally every day for two weeks starting day 7, 16 days since HeLa cell transplantation
[18] = 5 mg/kg intraperitoneally every day for two weeks starting day 7, 18 days since HeLa cell transplantation
[19] = 5 mg/kg intraperitoneally every day for two weeks starting day 7, 21 days since HeLa cell transplantation
[20] = Leu-removed medium + 0.8 mM amino acid, culture time 24 h
[21] = Leu-removed medium + 0.8 mM amino acid, culture time 48 h
[22] = Leu-removed medium + 0.8 mM amino acid, culture time 72 h
[23] = Leu-removed medium + 0.8 mM amino acid, culture time 72 h, hydrochloride

CC(C)(F)C(N)C(=O)O (racemic) [Val(1F), 3-fluoro-DL-valine]
Relative cell proliferation rate of PANC-1 cells [1, 5]: 88.8% | Relative cell proliferation rate of PANC-1 cells [1, 6]: 103.8% | Relative cell proliferation rate of PANC-1 cells [1, 7]: 105.1% | Relative cell proliferation rate of PANC-1 cells [1, 8]: about 100% | Relative cell proliferation rate of NHDF cells [2, 5]: 91.5% | Relative cell proliferation rate of NHDF cells [2, 6]: 70.4% | Relative cell proliferation rate of NHDF cells [2, 7]: 110.5% | Relative cell proliferation rate of NHDF cells [2, 8]: lower than the relative cell proliferation rate observed for the Val-removed medium | Relative cell proliferation rate of HeLa cells [3, 5]: 72.83% | Relative cell proliferation rate of HeLa cells [3, 6]: 118.0% | Relative cell proliferation rate of HeLa cells [3, 7]: 273.6%

NC(C(=O)O)C(C(F)(F)F)C(F)(F)F (racemic) [Val(6F), 4,4,4,4′,4′,4′-hexafluoro-DL-valine]
Relative cell proliferation rate of PANC-1 cells [1, 5]: 104.3% | Relative cell proliferation rate of PANC-1 cells [1, 6]: 133.4% | Relative cell proliferation rate of PANC-1 cells [1, 7]: 141.3% | Relative cell proliferation rate of NHDF cells [2, 5]: 109.8% | Relative cell proliferation rate of NHDF cells [2, 6]: 104.4% | Relative cell proliferation rate of NHDF cells [2, 7]: 125.2% | Relative cell proliferation rate of NHDF cells [2, 9]: lower than the relative cell proliferation rate observed for the Val-removed medium | Relative cell proliferation rate of HeLa cells [3, 5]: 88.1% | Relative cell proliferation rate of HeLa cells [3, 6]: 93.7% | Relative cell proliferation rate of HeLa cells [3, 7]: 67.6% | Relative cell proliferation rate of HeLa cells [3, 9]: less than 100%

CC(C)(F)CC[C@H](N)C(=O)O [5F-NorLeu, 5-fluoro-5-methyl-norleucine]
Tumor volume ([4]; administration intraperitoneally every day starting day 11, 11 days since HeLa cell transplantation): 230.6 mm^3 | Tumor volume ([4]; administration intraperitoneally every day starting day 11, 13 days since HeLa cell transplantation): 373.9 mm^3 | Tumor volume ([4]; administration intraperitoneally every day starting day 11, 15 days since HeLa cell transplantation): 684.9 mm^3 | Tumor volume ([4]; administration intraperitoneally every day starting day 11, 18 days since HeLa cell transplantation): 823.5 mm^3 | Tumor volume ([4]; administration intraperitoneally every day starting day 11, 20 days since HeLa cell transplantation): 1291.7 mm^3 | Tumor volume ([4]; administration intraperitoneally every day starting day 11, 22 days since HeLa cell transplantation): 1951.5 mm^3

NC(=O)[C@H](F)C[C@H](N)C(=O)O [(2S,4R)-Gln(1F)]
Relative cell proliferation rate of PANC-1 cells [1, 10]: 65.0% | Relative cell proliferation rate of PANC-1 cells [1, 11]: 34.7% | Relative cell proliferation rate of PANC-1 cells [1, 12]: 25.7% | Tumor volume [4, 13]: 74.6 mm^3 | Tumor volume [4, 14]: 101.6 mm^3 | Tumor volume [4, 15]: 147.2 mm^3 | Tumor volume [4, 16]: 219.1 mm^3 | Tumor volume [4, 17]: 287.0 mm^3 | Tumor volume [4, 18]: 307.7 mm^3 | Tumor volume [4, 19]: 431.4 mm^3 | Increase in the size of the tumor tissue compared with the control group [4]: dramatically inhibited | Relative cell proliferation rate of NHDF cells [2, 10]: 132.5% | Relative cell proliferation rate of NHDF cells [2, 11]: 46.5% | Relative cell proliferation rate of NHDF cells [2, 12]: 26.3% | Relative cell proliferation rate of HeLa cells [3, 10]: 46.8% | Relative cell proliferation rate of HeLa cells [3, 11]: 21.5% | Relative cell proliferation rate of HeLa cells [3, 12]: 23.1%

NC(=O)CC[C@H](N)C(=O)O [Gln, glutamine, reference compound]
Tumor volume [4, 13]: 76.0 mm^3 and 97.3 mm^3 | Tumor volume [4, 14]: 134.7 mm^3 and 259.1 mm^3 | Tumor volume [4, 15]: 215.4 mm^3 and 341.0 mm^3 | Tumor volume [4, 16]: 488.0 mm^3 and 721.9 mm^3 | Tumor volume [4, 17]: 734.1 mm^3 and 1094.6 mm^3 | Tumor volume [4, 18]: 939.6 mm^3 and 1348.3 mm^3 | Tumor volume [4, 19]: 1256.0 mm^3 and 1849.5 mm^3 | Increase in the size of the tumor tissue compared with the control group [4]: even larger than the control group

CC(C)(F)C[C@H](N)C(=O)O [Leu(1F), 4-fluoro-L-leucine]
Relative cell proliferation rate of PANC-1 cells [1, 20]: 67.6% | Relative cell proliferation rate of PANC-1 cells [1, 21]: 47.9% | Relative cell proliferation rate of PANC-1 cells [1, 22]: 40.9% | Relative cell proliferation rate of NHDF cells [2, 20]: 92.0% | Relative cell proliferation rate of NHDF cells [2, 21]: 66.4% | Relative cell proliferation rate of NHDF cells [2, 22]: 87.7% | Relative cell proliferation rate of NHDF cells ([2]; Leu-removed medium + 0.8 mM amino acid, culture time 72 h, listed as monofluoroleucine): less than 100% | Relative cell proliferation rate of HeLa cells [3, 20]: 82.3% | Relative cell proliferation rate of HeLa cells [3, 21]: 90.6% | Relative cell proliferation rate of HeLa cells [3, 22]: 82.0%

Cl.NC(CC(C(F)(F)F)C(F)(F)F)C(=O)O (centres unmarked) [Leu(6F), 2-amino-5,5,5-trifluoro-4-(trifluoromethyl) pentanoic acid hydrochloride]
Relative cell proliferation rate of PANC-1 cells [1, 20]: 75.5% | Relative cell proliferation rate of PANC-1 cells [1, 21]: 96.5% | Relative cell proliferation rate of PANC-1 cells [1, 23]: 193.6% | Relative cell proliferation rate of PANC-1 cells ([1]; Leu-removed medium + 0.8 mM amino acid, culture time 72 h, listed as hexafluoroleucine, hydrochloride): ~200% | Relative cell proliferation rate of NHDF cells [2, 20]: 104.7% | Relative cell proliferation rate of NHDF cells [2, 21]: 130.1% | Relative cell proliferation rate of NHDF cells [2, 23]: 179.1% | Relative cell proliferation rate of HeLa cells [3, 20]: 137.3% | Relative cell proliferation rate of HeLa cells [3, 21]: 264.0% | Relative cell proliferation rate of HeLa cells [3, 23]: 472.5%

CC(C)C[C@H](N)C(=O)O [Leu, leucine, reference compound]
Tumor volume [4, 13]: 77.4 mm^3 | Tumor volume ([4]; 5 mg/kg intraperitoneally every day for two weeks starting day 7, 10 days since HeLa cell transplantation): 190.1 mm^3 | Tumor volume ([4]; 5 mg/kg intraperitoneally every day for two weeks starting day 7, 12 days since HeLa cell transplantation): 355.3 mm^3 | Tumor volume [4, 16]: 385.1 mm^3 | Tumor volume ([4]; 5 mg/kg intraperitoneally every day for two weeks starting day 7, 17 days since HeLa cell transplantation): 714.2 mm^3 | Tumor volume ([4]; 5 mg/kg intraperitoneally every day for two weeks starting day 7, 19 days since HeLa cell transplantation): 1094.6 mm^3 | Tumor volume [4, 19]: 1536.5 mm^3

CC(C(N)C(=O)O)C(F)(F)F (centres unmarked) [Val(3F), 2-amino-3-methyl-4,4,4-trifluorobutanoic acid]
Relative cell proliferation rate of PANC-1 cells [1, 5]: 108.9% | Relative cell proliferation rate of PANC-1 cells [1, 6]: 161.2% | Relative cell proliferation rate of PANC-1 cells [1, 7]: 253.7% | Relative cell proliferation rate of NHDF cells [2, 5]: 83.0% | Relative cell proliferation rate of NHDF cells [2, 6]: 104.6% | Relative cell proliferation rate of NHDF cells [2, 7]: 116.6% | Relative cell proliferation rate of HeLa cells [3, 5]: 151.7% | Relative cell proliferation rate of HeLa cells [3, 6]: 287.6% | Relative cell proliferation rate of HeLa cells [3, 7]: 494.3%
